From patent US8202893B2, “Cannabinergic lipid ligands” (University of Connecticut, priority 2004, dated 2012) come the findings set out here.

Read-outs that look alike come from different tables or passages of the source.

One experiment has as its target T1, CB1 cannabinoid receptor (Rattus norvegicus, UniProt P20272).
T1 construct: membranes were prepared from rat forebrain membranes; from tissue; host or cells: rat forebrain
Put plainly: CB1 receptor binding, [3H]CP-55,940 displacement. Conditions: rat forebrain membranes.

Another experiment deals with T2, CB2 receptor (Mus musculus, UniProt P47936).
T2 construct: membranes were prepared from frozen mouse spleen; from tissue; host or cells: mouse spleen
T2 sequence (P47936 whole entry): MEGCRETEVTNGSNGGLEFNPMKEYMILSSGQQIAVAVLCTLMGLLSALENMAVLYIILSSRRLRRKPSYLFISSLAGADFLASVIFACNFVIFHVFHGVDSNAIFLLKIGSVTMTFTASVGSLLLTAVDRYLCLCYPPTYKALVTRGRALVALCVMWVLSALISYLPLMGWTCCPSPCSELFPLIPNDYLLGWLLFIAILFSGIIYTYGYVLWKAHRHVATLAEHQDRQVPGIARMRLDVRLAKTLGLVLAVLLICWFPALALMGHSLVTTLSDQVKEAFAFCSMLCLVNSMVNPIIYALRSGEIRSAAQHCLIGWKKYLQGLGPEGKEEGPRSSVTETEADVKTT
Put plainly: CB2 receptor binding, [3H]CP-55,940 displacement. Conditions: mouse spleen membranes.

Experiment [1] concerns the target T3, FAAH (fatty acid amide hydrolase) (Rattus norvegicus, UniProt P97612).
T3 construct: Anandamide Amidase Activity in Rat Brain Microsomes; from tissue; host or cells: rat brain microsomes (by the cited procedure)
T3 sequence (P97612 1-579): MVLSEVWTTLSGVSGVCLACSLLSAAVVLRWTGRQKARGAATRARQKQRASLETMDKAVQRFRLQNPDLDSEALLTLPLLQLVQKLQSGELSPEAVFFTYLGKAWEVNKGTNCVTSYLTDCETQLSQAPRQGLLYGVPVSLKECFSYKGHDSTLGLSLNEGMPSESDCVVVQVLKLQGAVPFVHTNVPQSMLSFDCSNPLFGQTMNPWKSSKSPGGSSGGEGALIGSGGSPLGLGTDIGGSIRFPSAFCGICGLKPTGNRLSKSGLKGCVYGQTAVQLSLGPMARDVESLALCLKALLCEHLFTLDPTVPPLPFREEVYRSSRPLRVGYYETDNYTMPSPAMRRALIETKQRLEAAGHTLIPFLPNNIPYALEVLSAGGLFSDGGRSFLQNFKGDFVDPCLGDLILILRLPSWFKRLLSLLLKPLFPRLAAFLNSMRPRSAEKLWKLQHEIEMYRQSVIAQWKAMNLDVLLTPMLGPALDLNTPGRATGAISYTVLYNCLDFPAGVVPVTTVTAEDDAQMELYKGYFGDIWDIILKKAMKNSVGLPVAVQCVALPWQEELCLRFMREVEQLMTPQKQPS
Kind of experiment: FAAH screening: inhibition of anandamide metabolism to arachidonic acid. It is filed as biochemical. Conditions: 25 nmoles compound with 25 nmoles AEA, 75 μg enzyme, 250 μL, 15 min. The procedure: The FAAH (fatty acid amide hydrolase) enzyme preparation was obtained according to the procedure of Lang and Makriyannis et al High Performance Liquid Chromatographic Determination of Anandamide Amidase Activity in Rat Brain Microsomes, Analytical Biochemistry (238): 40-45, 1996.
All compound solutions were made to a concentration of 10 mM in DMSO. Three tests were performed on each compound: hydrolysis, to determine the stability of the compound in assay conditions without the enzyme present; metabolism, to determine the stability of the compound with the enzyme present; and inhibition of anandamide (native substrate) metabolism to arachidonic acid.
Again the reaction mixture was treated in the same manner as described above and the concentrations of AEA and AA were calculated using external standards. Percent inhibition was calculated using the following equation: % Inhib.=(AA15-AA0)i/(AA15-AA0)s where (AA15-AA0)c is the amount of arachidonic acid formed over 15 minutes from AEA with the inhibitor present and (AA15-AA0)s is the amount of arachidonic acid formed over 15 minutes from AEA when the inhibitor is not present. […] The reaction mixtures were treated as described above and the amount of AA formed was calculated. The software package GraphPad Prism was utilized to calculate IC50 and Ki. HPLC Conditions:
Chromatographic separation was achieved using an Ultrasphere ODS Pre-column (4.6×45 mm) from Beckman. Hardware consisted of a Waters Millennium HPLC system with a 20 μL injection loop. The mobile phase consisted of 8.5% o-phosphoric acid:acetonitrile (3:7), run isocratically at a rate of 1 mL/min and detection at 204 nm. The total run time was 8 minutes with AEA eluting at 2.2 minutes and AA at 6.0 minutes.

Where [2] appears, read: with PMSF (second value of cell), read-out: Ki CB1 (nM) (o/w PMSF).
Where [3] appears, read: without PMSF (first value of cell), read-out: Ki CB1 (nM) (o/w PMSF).
Where [4] appears, read: with PMSF (second value of cell), read-out: Ki CB1 (nM) (o/w PMSFQ).
Where [5] appears, read: without PMSF (first value of cell), read-out: Ki CB1 (nM) (o/w PMSFQ).

T1 sequence (P20272 whole entry): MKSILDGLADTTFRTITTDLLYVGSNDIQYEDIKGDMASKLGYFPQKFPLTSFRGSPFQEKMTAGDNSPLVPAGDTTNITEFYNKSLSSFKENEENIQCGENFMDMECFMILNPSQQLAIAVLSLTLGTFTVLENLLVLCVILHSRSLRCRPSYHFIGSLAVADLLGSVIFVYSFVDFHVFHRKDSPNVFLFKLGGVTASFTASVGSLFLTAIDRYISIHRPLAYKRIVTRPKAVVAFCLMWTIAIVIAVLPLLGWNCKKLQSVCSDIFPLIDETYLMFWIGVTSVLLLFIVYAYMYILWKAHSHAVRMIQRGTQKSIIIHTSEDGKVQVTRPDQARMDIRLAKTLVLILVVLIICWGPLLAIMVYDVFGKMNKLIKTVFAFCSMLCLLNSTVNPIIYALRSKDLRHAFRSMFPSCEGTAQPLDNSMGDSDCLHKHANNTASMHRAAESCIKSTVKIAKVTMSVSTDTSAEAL

For the molecule `CCCCCC=CCC=CCC=CCC=CCCCCOC(=O)NCC(C)O` (stereo not drawn) [Compound B3], the figures for the Ki at CB1 cannabinoid receptor (setting [2]), at CB1 cannabinoid receptor (setting [3]) and at CB2 receptor were 396 nM, 526 nM and 597 nM, respectively. Besides, the “FAAH % Inhibition” value in experiment [1] was found to be 10%.

With `O=C(CCC/C=C\C/C=C\C/C=C\C/C=C\CCCCc1ccccc1)NCC1CC1` [Compound A1], the Ki stood at 153 nM at CB1 cannabinoid receptor (setting [4]), 94.6 nM at CB1 cannabinoid receptor (setting [5]) and 177 nM on CB2 receptor. The “FAAH % Inhibition” value in experiment [1] is recorded as 23%.

As for `O=C(CCC/C=C\C/C=C\C/C=C\C/C=C\CCc1ccccc1)Nc1nccs1` [Compound A4], the Ki was 84.3 nM on CB1 cannabinoid receptor (setting [4]), 1180 nM on CB1 cannabinoid receptor (setting [5]) and 1230 nM at CB2 receptor. Also, in experiment [1], the “FAAH % Inhibition” value amounted to 58%.

For the molecule `CC/C=C\C/C=C\C/C=C\CCCCCCCCOC(=O)NC[C@H](C)O` [Compound B15], the figures for the Ki at CB1 cannabinoid receptor (setting [2]), on CB1 cannabinoid receptor (setting [3]) and on CB2 receptor were 481 nM, 622 nM and 422 nM, respectively. For the same molecule, the “FAAH % Inhibition” value in experiment [1] came out at 6.96%.

On to `CCCCC/C=C\C/C=C\CCCCCCCCOC(=O)NC[C@H](C)O` [Compound B14], for which the Ki at CB1 cannabinoid receptor (setting [2]) turned out to be 405 nM; at CB1 cannabinoid receptor (setting [3]) it was 1350 nM; on CB2 receptor it was 2250 nM. In experiment [1], the “FAAH % Inhibition” value stood at 1.20%.

Consider `CCCCC/C=C\C/C=C\C/C=C\C/C=C\CCCCNC(=O)NC[C@H](C)O` [Compound B12], for which the Ki at CB1 cannabinoid receptor (setting [2]) was 126 nM; on CB1 cannabinoid receptor (setting [3]) it was 380 nM; at CB2 receptor it was 242 nM. Further, the “FAAH % Inhibition” value in experiment [1] was found to be 17.2%.

Regarding `COc1cc(CNC(=O)CCC/C=C\C/C=C\C/C=C\C/C=C\CCCCN=C=S)ccc1O` [Compound A12], the Ki on CB1 cannabinoid receptor (setting [4]) was found to be 136 nM; on CB1 cannabinoid receptor (setting [5]), 193 nM; on CB2 receptor, 553 nM. For the same molecule, in experiment [1], the “FAAH % Inhibition” value is reported as 39%.

As to `O=C(CCC/C=C\C/C=C\C/C=C\C/C=C\CCc1ccccc1)NCC1CC1` [Compound A2], the figures for the Ki at CB1 cannabinoid receptor (setting [4]), on CB1 cannabinoid receptor (setting [5]) and on CB2 receptor were 129 nM, 729 nM and 171 nM, respectively. The “FAAH % Inhibition” value in experiment [1] is reported as 32%.

Regarding `O=C(CCC/C=C\C/C=C\C/C=C\C/C=C\CCc1ccccc1)Nc1ccc(O)cc1` [Compound A3], the Ki on CB1 cannabinoid receptor (setting [4]) worked out at 58.6 nM; on CB1 cannabinoid receptor (setting [5]), 183 nM; at CB2 receptor, 83.3 nM. The “FAAH % Inhibition” value in experiment [1] is 34%.

Consider `[N-]=[N+]=NCCCC/C=C\C/C=C\C/C=C\C/C=C\CCCC(=O)NCC1CC1` [Compound A6], for which the Ki came out at 114 nM on CB1 cannabinoid receptor (setting [4]), 195 nM at CB1 cannabinoid receptor (setting [5]) and 426 nM on CB2 receptor. Further, the “FAAH % Inhibition” value in experiment [1] was determined as 11%.

Turning to `COc1cc(CNC(=O)CCC/C=C\C/C=C\C/C=C\C/C=C\CCCCN=[N+]=[N-])ccc1O` [Compound A7], the Ki is 80.5 nM at CB1 cannabinoid receptor (setting [4]), 165 nM at CB1 cannabinoid receptor (setting [5]) and 302 nM on CB2 receptor. Besides, the “FAAH % Inhibition” value in experiment [1] came out at 46%.

In the case of `O=C(CCC/C=C\C/C=C\C/C=C\C/C=C\CCCCCBr)NC1CC1` [Compound A18], the Ki turned out to be 0.16 nM on CB1 cannabinoid receptor (setting [4]), 25.1 nM on CB1 cannabinoid receptor (setting [5]) and 12.3 nM on CB2 receptor. In addition, in experiment [1], the “FAAH % Inhibition” value was determined as 72%.
